According to US20260345601A1, “FORMS OF CARBAMATE DERIVATIVES AND RELATED USES” (NodThera Limited, priority 2022, published 2026):
Converted amounts (≈) assume the structure as drawn. “Also recorded” adds a separate entry of the source. Each block holds one molecule with its values, some of them ahead of it.

Tests used:
[1] = test system: NLRP3 inflammasome; conditions: reported in literature; cited from earlier work
[2] = Gravimetric vapour sorption (GVS); format: physicochemical; conditions: for GVS hygroscopicity / GVS hysteresis / GVS water uptake: 25 °C; for XRPD post GVS: form after GVS experiment
Experimental: Gravimetric Vapour Sorption (GVS)
Sorption isotherms were obtained using a SMS DVS Intrinsic moisture sorption analyser, controlled by DVS Intrinsic Control software. The sample temperature was maintained at 25 °C by the instrument controls. The humidity was controlled by mixing streams of dry and wet nitrogen, with a total flow rate of 200 ml/min. The relative humidity was measured by a calibrated Rotronic probe (dynamic range of 1.0-100% RH), located near the sample. The weight change, (mass relaxation) of the sample as a function of % RH was constantly monitored by a microbalance (accuracy±0.005 mg).
Typically, 5-30 mg of sample was placed in a tared mesh stainless steel basket under ambient conditions. The sample was loaded and unloaded at 40% RH and 25 °C (typical room conditions). A moisture sorption isotherm was performed as outlined below (2 scans per complete cycle). The standard isotherm was performed at 25 °C at 10% RH intervals over a 0-90% RH range. Typically, a double cycle (4 scans) was carried out. Data analysis was carried out within Microsoft Excel using the DVS Analysis Suite.
The sample was recovered after completion of the isotherm and re-analysed by XRPD.

[3] = TGA (thermo-gravimetric analysis)/thermal analysis; format: physicochemical; conditions: for TGA weight loss before degradation: heated at 10 °C/min, nitrogen purge
Experimental: Thermo-Gravimetric Analysis (TGA)
TA Instruments Q500: TGA data were collected on a TA Instruments Q500 TGA, equipped with a 16 position auto-sampler. Typically, 5-10 mg of each sample was loaded onto a pre-tared aluminium DSC pan and heated at 10 °C/min from ambient temperature to 350 °C. A nitrogen purge at 60 ml/min was maintained over the sample. The instrument control software was Advantage for Q Series and Thermal Advantage and the data were analysed using Universal Analysis or TRIOS.

[4] = Solubility in single solvents, Form 2 as starting material (Table D); format: physicochemical; conditions: 20-25 °C
Experimental: Solubility of Form 1 was measured in several single solvents using Form 2 as starting material, respectively. […] Thus, MeOH, Acetone, MEK, EtOAc and IPAc were selected for further chemical stability evaluation before starting solubility test with anti-solvents.

[5] = Storage at 25 °C/97% RH and 40 °C/75% RH; format: physicochemical
Experimental: Chemical Purity Determination by High-Performance Liquid Chromatography (HPLC)
Purity analysis was performed on an Agilent HP1100/Infinity II 1260 series system equipped with a diode array detector and using OpenLAB software. The full method details are provided below:
Unless stated within the appropriate data tables, all HPLC purity data reported has been run using the HPLC Method No. 2.

[6] = Chemical stability evaluation in solvents (Table F); format: physicochemical
Experimental: Chemical stability of this compound was evaluated in MeOH, Acetone, MEK, EtOAc, and IPAc at different temperature points.

[7] = Solubility of Form 1 in IPAc/Heptane system (Table E); format: physicochemical
Experimental: Solubility of Form 1 was further measured in IPAc/Heptane system with different ratio at 0-50 °C.

[8] = Solubility in aqueous and biorelevant media (Table A); format: physicochemical
Text: Form 1 was characterized using a wide range of techniques to investigate the solid form and chemical properties (FIGS. 1-6B).

[9] = Drying stability test (Table I); format: physicochemical; conditions: 50 °C under vacuum

Structure (SMILES): C=C1C(=O)O[C@H]2[C@H]1CC/C(C)=C/CC[C@@]1(C)O[C@@H]21 [parthenolide]
Effect on NLRP3 activation [1]: impair NLRP3 activation

Structure (SMILES): COc1ccc(Cl)cc1C(=O)NCCc1ccc(S(=O)(=O)NC(=O)NC2CCCCC2)cc1 [Glyburide]
Concentration of NLRP3 inhibition in words [1]: micromolar concentrations
Effect on NLRP3 activation [1]: specific inhibitor of NLRP3 activation

Structure (SMILES): NC[C@@H]1O[C@H](c2ccccc2)Cc2c1ccc(O)c2O [Form A-68930]
Effect on NLRP3 activation [1]: impair NLRP3 activation

Structure (SMILES): O=c1c(O)c(-c2ccc(O)c(O)c2)oc2cc(O)cc(O)c12 [quercetin]
Effect on NLRP3 activation [1]: suppress NLRP3 activation

Structure (SMILES): OC(CNCC(O)C1CCc2cc(F)ccc2O1)C1CCc2cc(F)ccc2O1 (stereo not drawn) [nebivolol]
Effect on NLRP3 activation [1]: impair NLRP3 activation

Structure (SMILES): O=[N+]([O-])C=Cc1ccc2c(c1)OCO2 [3,4-methylenedioxy-β-nitrostyrene]
Effect on NLRP3 activation [1]: impair NLRP3 activation

Structure (SMILES): CNCCC(Oc1ccc(C(F)(F)F)cc1)c1ccccc1 (stereo not drawn) [fluoxetine]
Effect on NLRP3 activation [1]: impair NLRP3 activation

GVS hygroscopicity [2]: Non-hygroscopic
GVS hysteresis [2]: no hysteresis
GVS water uptake ([2]; 0-90% RH): ~0.15% reversible uptake from 0-90% RH
GVS water uptake ([2]; 40-90% RH): 0.09%
TGA weight loss before degradation [3]: No weight loss before degradation
Form conversion after slurry (XRPD) ([4]; all selected solvents except water): converted to Form 1
Form after slurry (XRPD) ([4]; H2O, starting material Form 2): Form 2
Solubility ([4]; H2O, starting material Form 2, XRPD Form 2): 1000 µg/mL (≈ 2.44 mM)
Storage: solid form ([5]; 25 °C/97% RH): Crystalline - Form 2
Stability at elevated storage ([5]; 25 °C/97% RH and 40 °C/75% RH for 1 week): stable
Storage: solid form ([5]; 40 °C/75% RH): Crystalline - Form 2
Stability of solid form at elevated conditions ([5]; elevated conditions): stable at elevated conditions
Structure (SMILES): CC(C)OC(=O)[C@@H](Cc1ncccn1)OC(=O)Nc1c2c(cc3c1CCC3)CCC2 [Form 2, propan-2-yl(2R)-2-{[(1,2,3,5,6,7-hexahydro-s-indacen-4-yl)carbamoyl]oxy}-3-(pyrimidin-2-yl) propanoate]
XRPD post GVS [2]: remained Form 2; also recorded: Crystalline - Form 2

Structure (SMILES): OC[C@H]1O[C@@H](c2ccc(Cl)c(Cc3ccc(O[C@H]4CCOC4)cc3)c2)[C@H](O)[C@@H](O)[C@@H]1O [epigliflozin]
Effect on NLRP3 activation [1]: impair NLRP3 activation

Chemical stability in words ([6]; Acetone and EtOAc, 23 h): slight degradation
Chemical stability: purity ([6]; Acetone, 40 °C, 0 h): 99.57%
Chemical stability: purity ([6]; Acetone, 40 °C, 5-6 h): 99.55%
Chemical stability: purity ([6]; Acetone, 40 °C, 23-24 h): 98.06%
Chemical stability: purity ([6]; EtOAc, 40 °C, 0 h): 99.49%
Chemical stability: purity ([6]; EtOAc, 40 °C, 5-6 h): 99.46%
Chemical stability: purity ([6]; EtOAc, 40 °C, 23-24 h): 99.46%
Chemical stability: purity ([6]; EtOAc, 50 °C, 0 h): 99.43%
Chemical stability: purity ([6]; EtOAc, 50 °C, 5-6 h): 99.31%
Chemical stability: purity ([6]; EtOAc, 50 °C, 23-24 h): 99.27%
Chemical stability: purity ([6]; IPAc, 50 °C, 0 h): 99.70%
Chemical stability: purity ([6]; IPAc, 50 °C, 5 h): 99.73%
Chemical stability in words ([6]; IPAc, 50 °C, 24 h): chemical stable
Chemical stability: purity ([6]; IPAc, 50 °C, 24 h): 99.76%
Chemical stability: purity ([6]; MEK, 40 °C, 0 h): 99.52%
Chemical stability: purity ([6]; MEK, 40 °C, 5-6 h): 99.51%
Chemical stability: purity ([6]; MEK, 40 °C, 23-24 h): 93.28%
Chemical stability: purity ([6]; MEK, 50 °C, 0 h): 99.38%
Chemical stability: purity ([6]; MEK, 50 °C, 5-6 h): 92.75%
Chemical stability: purity ([6]; MEK, 50 °C, 23-24 h): 87.20%
Chemical stability in words ([6]; MeOH and MEK, 23 h): serious degradation
Chemical stability: purity ([6]; MeOH, 50 °C, 0 h): 99.12%
Chemical stability: purity ([6]; MeOH, 50 °C, 5-6 h): 98.03%
Chemical stability: purity ([6]; MeOH, 50 °C, 23-24 h): 90.58%
Structure (SMILES): CC(C)OC(=O)[C@@H](Cc1ncccn1)OC(=O)Nc1c2c(cc3c1CCC3)CCC2 [Compound A, propan-2-yl(2R)-2-{[(1,2,3,5,6,7-hexahydro-s-indacen-4-yl)carbamoyl]oxy}-3-(pyrimidin-2-yl) propanoate]

Solubility ([7]; IPAc/Heptane 1/0 (v/v), 30 °C): 59500 µg/mL (≈ 145 mM)
Solubility ([7]; IPAc/Heptane 1/0 (v/v), 40 °C): 80200 µg/mL (≈ 196 mM)
Solubility ([7]; IPAc/Heptane 1/0 (v/v), 50 °C): 170600 µg/mL (≈ 417 mM)
Solubility ([7]; IPAc/Heptane 1/1 (v/v), 0-5 °C): 6400 µg/mL (≈ 15.6 mM)
Solubility ([7]; IPAc/Heptane 1/1 (v/v), 30 °C): 12100 µg/mL (≈ 29.5 mM)
Solubility ([7]; IPAc/Heptane 1/1 (v/v), 50 °C): 34400 µg/mL (≈ 84 mM)
Solubility ([7]; IPAc/Heptane 1/2 (v/v), 0-5 °C): 3400 µg/mL (≈ 8.3 mM)
Solubility ([7]; IPAc/Heptane 1/2 (v/v), 30 °C): 4800 µg/mL (≈ 11.7 mM)
Solubility ([7]; IPAc/Heptane 1/2 (v/v), 50 °C): 18000 µg/mL (≈ 44 mM)
Solubility ([7]; IPAc/Heptane 1/3 (v/v), 0-5 °C): 1700 µg/mL (≈ 4.15 mM)
Solubility ([7]; IPAc/Heptane 1/3 (v/v), 30 °C): 2900 µg/mL (≈ 7.08 mM)
Solubility ([7]; IPAc/Heptane 1/3 (v/v), 50 °C): 8000 µg/mL (≈ 19.5 mM)
Solubility ([7]; IPAc/Heptane 2/1 (v/v), 30 °C): 27700 µg/mL (≈ 67.6 mM)
Solubility ([7]; IPAc/Heptane 2/1 (v/v), 50 °C): 53400 µg/mL (≈ 130 mM)
Solubility ([7]; IPAc/Heptane 3/1 (v/v), 50 °C): 65200 µg/mL (≈ 159 mM)
Solubility ([7]; IPAc/Heptane 4/1 (v/v), 50 °C): 75200 µg/mL (≈ 184 mM)
Solubility ([7]; IPAc/Heptane 9/1 (v/v), 50 °C): 120000 µg/mL (≈ 293 mM)
XRPD form in solubility test ([7]; IPAc/Heptane, 0-50 °C, starting material Form 1): Form 1
Solubility ([8]; fassif): 26 µg/mL (≈ 0.0635 mM)
Solubility ([8]; fessif): 14 µg/mL (≈ 0.0342 mM)
Solubility ([8]; pH = 1.2): < 10 µg/mL
Solubility ([8]; pH = 5): < 10 µg/mL
Solubility ([8]; pH = 6.5): < 10 µg/mL
Solubility ([8]; pH = 7.4): < 10 µg/mL
Solubility ([8]; pH = 8.5): < 10 µg/mL
Solubility ([8]; sgf): 4.7 µg/mL (≈ 0.0115 mM)
GVS hygroscopicity [2]: Non-hygroscopic
GVS hysteresis [2]: no hysteresis
GVS water uptake ([2]; 0-90% RH): <0.1% water uptake between 0-90% RH
GVS water uptake ([2]; 40-90% RH): < 0.1%
XRPD post GVS [2]: remained as Form 1
Drying stability: XRPD ([9]; 0 h): Form 1
Drying stability: purity ([9]; 0 h): 99.0%
Drying stability: XRPD ([9]; 22 h): Form 1
Drying stability: purity ([9]; 22 h): 99.1%
Drying stability: XRPD ([9]; 70 h): Form 1
Drying stability: purity ([9]; 70 h): 99.1%
Drying stability in words ([9]; total 70 h): no degradation and form change
Thermal stability by thermal analysis [3]: thermally stable
TGA weight loss before degradation [3]: no weight loss before degradation
Solubility ([4]; Acetone, starting material Form 2, XRPD Form 1): 167000 µg/mL (≈ 408 mM)
Solubility ([4]; EtOAc, starting material Form 2, XRPD Form 1): 98000 µg/mL (≈ 239 mM)
Solubility in words ([4]; EtOH and IPA): moderate solubility
Solubility ([4]; EtOH, starting material Form 2, XRPD Form 1): 45000 µg/mL (≈ 110 mM)
Solubility ([4]; IPA, starting material Form 2, XRPD Form 1): 24000 µg/mL (≈ 58.6 mM)
Solubility ([4]; IPAc, starting material Form 2, XRPD Form 1): 48000 µg/mL (≈ 117 mM)
Solubility ([4]; MEK, starting material Form 2, XRPD Form 1): 175000 µg/mL (≈ 427 mM)
Solubility ([4]; MeOH, starting material Form 2, XRPD Form 1): 77000 µg/mL (≈ 188 mM)
Solubility in words ([4]; MeOH, Acetone, MEK, EtOAc and IPAc): good solubility
Solubility in words ([4]; n-heptane and water): poor solubility
Solubility ([4]; n-heptane, starting material Form 2, XRPD Form 1): 3000 µg/mL (≈ 7.33 mM)
Storage: solid form ([5]; 25 °C/97% RH): Form 1
Storage: solid form ([5]; 40 °C/75% RH): Form 1
Structure (SMILES): CC(C)OC(=O)[C@@H](Cc1ncccn1)OC(=O)Nc1c2c(cc3c1CCC3)CCC2 [Form 1, propan-2-yl(2R)-2-{[(1,2,3,5,6,7-hexahydro-s-indacen-4-yl)carbamoyl]oxy}-3-(pyrimidin-2-yl) propanoate]
Stability at elevated temperatures ([9]; total 70 h): chemically and physically stable at elevated temperatures

Structure (SMILES): Cc1ccc(S(=O)(=O)/C=C/C#N)cc1 [Bay 11-7082]
Effect on NLRP3 activation [1]: impair NLRP3 activation

Structure (SMILES): C[S+]([O-])CCCCN=C=S (stereo not drawn) [sulforaphane]
Effect on NLRP3 activation [1]: suppress NLRP3 activation
